Numbering of substitutions follows the chain as printed.
Tests used:
ACVR1 = target: T1, ACVR1 (Homo sapiens, UniProt Q04771); test: ThermoFisher (Lantha) kinase assay, inhibition of ACVR1; type: biochemical; conditions: ThermoFisher Assay, in vitro
T1 construct: purchased ThermoFisher
T1 sequence (Q04771 21-509): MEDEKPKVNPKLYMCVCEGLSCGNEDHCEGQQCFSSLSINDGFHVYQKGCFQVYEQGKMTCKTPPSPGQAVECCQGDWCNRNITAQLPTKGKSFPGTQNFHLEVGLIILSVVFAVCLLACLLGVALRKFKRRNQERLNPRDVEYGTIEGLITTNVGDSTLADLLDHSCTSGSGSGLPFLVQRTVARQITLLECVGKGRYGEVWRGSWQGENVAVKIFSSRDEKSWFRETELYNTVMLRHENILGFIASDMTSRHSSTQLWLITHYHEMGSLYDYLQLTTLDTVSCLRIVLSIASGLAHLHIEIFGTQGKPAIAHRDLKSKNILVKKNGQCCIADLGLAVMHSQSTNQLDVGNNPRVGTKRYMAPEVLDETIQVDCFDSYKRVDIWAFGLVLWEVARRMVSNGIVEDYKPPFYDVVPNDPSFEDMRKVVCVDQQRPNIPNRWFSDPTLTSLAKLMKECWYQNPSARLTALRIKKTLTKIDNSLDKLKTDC

ACVRL1 [1] = target: T2, ACVRL1 (Homo sapiens, UniProt P37023); test: ThermoFisher (Lantha) kinase assay, inhibition of ACVRL1; type: biochemical; conditions: in vitro, NA = not active at 1 μM
T2 construct: purchased ThermoFisher

ACVR1^WT = target: T3, ACVR1^WT (Homo sapiens, UniProt Q04771); test: Promega NanoBRET live-cell target engagement, ACVR1; type: cell-based; conditions: in cellulo; NI = No inhibition at 40 μM
T3 sequence (Q04771 21-509): T1 sequence (Q04771 21-509)
Description: (§1) The Promega NanoBRET target engagement system involves cell-based competitive displacement of a fluorescent NanoBRET tracer bound reversibly to a NanoLuc fusion protein. Test compounds displace the tracer dependent on their affinity for the target and reduce […] the NanoBRET signal. […]

ACVR1^R206H = target: T4, ACVR1^R206H (Homo sapiens, UniProt Q04771, R206H); test: Promega NanoBRET live-cell target engagement, ACVR1 (R206H); type: cell-based; conditions: in cellulo; NI = No inhibition at 40 μM
T4 sequence (Q04771 21-509 R206H): T1 sequence (Q04771 21-509) with R186H
Description: as §1

ACVRL1 [2] = target: T2, ACVRL1; test: Promega NanoBRET live-cell target engagement, ACVRL1; type: cell-based; conditions: in cellulo; NI = No inhibition at 40 μM
Description: The Promega NanoBRET target engagement system involves cell-based competitive displacement of a fluorescent NanoBRET tracer bound reversibly to a NanoLuc fusion protein. Test compounds displace the tracer dependent on their affinity for the target and reduce loss of the NanoBRET signal.
Further, HEK29T cells with stable expression of a BMP reporter element driving luciferase expression can be used to test inhibition of BMP-induced luciferase transactivation. […] Additionally, utilizing the HEPG2 cell system described herein, responsiveness to activin and induction of Hepcidin (HAMP) gene expression can be probed in the presence and absence of ACVR1 inhibitors, as well as the influence of tacrolimus on activin-induced hepcidin gene expression.
Thus, the in cellulo assays described herein comprise a luciferase reporter cell line system.

[3] = Metabolic stability in mouse liver microsomes; type: in vitro ADME; conditions: some cells add hours in brackets
Description: (§2) Exemplary compounds of the present disclosure have been evaluated for metabolic stability in mouse and human liver microsomes.

[4] = Metabolic stability in human liver microsomes; type: in vitro ADME; conditions: some cells add hours in brackets
Description: as §2

[5] = test system: BMP2-induced luciferase activity in 293T-BRE-reporter cells; test: BMP2-induced luciferase reporter activity in 293T-BRE reporter cells; type: cell-based; conditions: 0.2, 1, 5, 25 μM, 30 min pre-treatment, 5 ng/ml BMP2, 6 hours
Procedure: BMP2-dependent luciferase reporter activation was quantified after 6 hours using the Promega BrightGLO luciferase system on a Tecan Infinity M1000 Pro plate reader.
FIG. 10 provides a bar graph depicting inhibition of BMP2-induced luciferase activity in 293T-BRE-reporter cells. Approximately 20,000 cells per well were plated in a 96-well plate and allowed to attach overnight. […] Cells were then stimulated with vehicle or 5 ng/ml BMP2 for 6 hours. Luciferase transactivation was assessed using the Promega BrightGLO luciferase system (Promega) and the signal was quantified using a plate reader (M1000 Pro).

[6] = test system: pSMAD1/5 in FOP fibroblasts (FOP GM00513); test: BMP2-induced pSMAD1/5 Western blot in primary FOP fibroblasts; type: cell-based, human; conditions: 1, 5, 25 μM, 30 min pre-treatment, 5 ng/mL BMP2 45 min
Procedure: (§3) FIG. 11 depicts inhibition of phosphorylated SMAD1/5 (pSMAD1/5) in primary WT and FOP fibroblasts. […] Subsequently, the fibroblasts were treated with vehicle (i.e., DMSO) or 5 ng/mL BMP2 in the presence of the inhibitors for 45 minutes. Cell lysates were then probed with antibodies against pSMAD1/5, total SMAD5, total SMAD1, and GAPDH (i.e., loading control) using a Western blot.

[7] = test system: pSMAD1/5 in WT fibroblasts (WT GM01652); test: BMP2-induced pSMAD1/5 Western blot in primary WT fibroblasts; type: cell-based, human; conditions: 1, 5, 25 μM, 30 min pre-treatment, 5 ng/mL BMP2 45 min
Procedure: as §3

T2 sequence (P37023 22-503): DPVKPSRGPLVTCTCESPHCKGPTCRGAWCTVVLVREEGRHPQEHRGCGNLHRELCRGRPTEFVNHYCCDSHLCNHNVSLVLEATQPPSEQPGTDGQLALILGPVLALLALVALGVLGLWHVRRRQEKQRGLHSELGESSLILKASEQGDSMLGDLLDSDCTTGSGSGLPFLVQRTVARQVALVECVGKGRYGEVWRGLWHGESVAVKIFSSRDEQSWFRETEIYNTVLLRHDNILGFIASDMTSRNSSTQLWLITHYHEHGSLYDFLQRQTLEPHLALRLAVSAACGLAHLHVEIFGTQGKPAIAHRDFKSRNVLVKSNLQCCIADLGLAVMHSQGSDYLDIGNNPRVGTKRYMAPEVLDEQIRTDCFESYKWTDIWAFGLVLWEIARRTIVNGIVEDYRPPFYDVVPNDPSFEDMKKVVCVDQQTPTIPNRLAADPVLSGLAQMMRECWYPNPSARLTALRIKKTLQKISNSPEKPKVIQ

Row | Molecule | IC50 (ACVR1) [µM] | IC50 (ACVRL1 [1]) [µM] | IC50 (ACVR1^WT) [µM] | IC50 (ACVR1^R206H) [µM] | IC50 (ACVRL1 [2]) [µM] | Metabolism MLM [3] [min] | Metabolism HLM [4] [min] | Metabolism MLM (Min) [3] | Metabolism HLM (Min) [4] | inhibition of BMP2-induced luciferase activity [5] | suppression of BMP2-induced pSMAD1/5 activation, FOP fibroblasts [6] | suppression of BMP2-induced pSMAD1/5 activation, WT fibroblasts [7]
1 | N-(3-(4-benzoylpiperazin-1-yl)propyl)-1-cyclobutyl-2-(3,4,5-trimethoxyphenyl)-1H-benzo[d]imidazole-6-carboxamide [CDD-2791] | 0.0079 | 0.0146 | 1.08 | 2.6 | > 40 | 2.8 | 15.4 | – | – | – | – | –
2 | COc1cc(F)cc(-c2nc3ccc(C(=O)NCCCN(C)C)cc3n2C2CCC2)c1 [CDD-2617, 1-cyclobutyl-N-(3-(dimethylamino)propyl)-2-(3-fluoro-5-methoxyphenyl)-1H-benzo[d]imidazole-6-carboxamide] | – | – | 10.7 | 13.4 | – | – | – | 78.5 (1.3 h) Min | 194 (3.2 h) Min | – | – | –
3 | CNC(=O)[C@H]1C[C@H](n2c(-c3cc(OC)ccc3OC)nc3ccc(C(=O)NCCCN(C)C)cc32)C1 [CDD-2687, 2-(2,5-dimethoxyphenyl)-N-(3-(dimethylamino)propyl)-1-((1r,3r)-3-(methylcarbamoyl)cyclobutyl)-1H-benzo[d]imidazole-6-carboxamide] | 0.0251 | 0.0787 | > 40 | > 40 | > 40 | – | – | – | – | – | – | –
4 | CNC(=O)[C@H]1C[C@H](n2c(-c3cc(OC)cc(OC)c3)nc3ccc(C(=O)NCCCN(C)C)cc32)C1 [CDD-2686, 2-(3,5-dimethoxyphenyl)-N-(3-(dimethylamino)propyl)-1-((1r,3r)-3-(methylcarbamoyl)cyclobutyl)-1H-benzo[d]imidazole-6-carboxamide] | 0.0343 | 0.0722 | 28.2 | 29.6 | > 40 | – | – | – | – | – | – | –
5 | CNC(=O)[C@H]1C[C@H](n2c(-c3cc(OC)c(OC)c(OC)c3)nc3ccc(C(=O)NCCCN4CCN(C)CC4)cc32)C1 [CDD-2280, 1-((1r,3r)-3-(methylcarbamoyl)cyclobutyl)-N-(3-(4-methylpiperazin-1-yl)propyl)-2-(3,4,5-trimethoxyphenyl)-1H-benzo[d]imidazole-6-carboxamide] | – | – | > 40 | > 40 | – | 48 | 70.7 | – | – | – | – | –
6 | CNC(=O)[C@H]1C[C@H](n2c(-c3cc(OC)c(OC)c(OC)c3)nc3ccc(C(=O)NCC4CCN(C)CC4)cc32)C1 [CDD-2282, 1-((1r,3r)-3-(methylcarbamoyl)cyclobutyl)-N-((1-methylpiperidin-4-yl)methyl)-2-(3,4,5-trimethoxyphenyl)-1H-benzo[d]imidazole-6-carboxamide] | – | – | > 40 | > 40 | – | – | – | 220.4 (3.67 h) Min | 978 (16.3 h) Min | – | – | –
7 | CNC(=O)[C@H]1C[C@H](n2c(-c3cc(OC)c(OC)c(OC)c3)nc3ccc(C(=O)NCCCN(C)C)cc32)C1 [CDD-2281, N-(3-(dimethylamino)propyl)-1-((1r,3r)-3-(methylcarbamoyl)cyclobutyl)-2-(3,4,5-trimethoxyphenyl)-1H-benzo[d]imidazole-6-carboxamide] | – | – | > 40 | > 40 | – | – | – | 807.1 (13.4 h) Min | 769.1 (12.81 h) Min | – | – | –

Continued, in another order:

Row | IC50 (ACVR1) [µM] | IC50 (ACVRL1 [1]) [µM] | IC50 (ACVR1^WT) [µM] | IC50 (ACVR1^R206H) [µM] | IC50 (ACVRL1 [2]) [µM] | Metabolism MLM [3] [min] | Metabolism HLM [4] [min] | Metabolism MLM (Min) [3] | Metabolism HLM (Min) [4] | Molecule | inhibition of BMP2-induced luciferase activity [5] | suppression of BMP2-induced pSMAD1/5 activation, FOP fibroblasts [6] | suppression of BMP2-induced pSMAD1/5 activation, WT fibroblasts [7]
8 | – | – | 0.473 | 0.705 | – | 3.3 | 9.8 | – | – | COc1cc(-c2nc3ccc(C(=O)NCCCN4CCN(c5ccccn5)CC4)cc3n2C2CCC2)cc(OC)c1OC [CDD-2787, 1-cyclobutyl-N-(3-(4-(pyridin-2-yl)piperazin-1-yl)propyl)-2-(3,4,5-trimethoxyphenyl)-1H-benzo[d]imidazole-6-carboxamide] | Potent inhibition | suppressed | suppressed
9 | – | – | 1.24 | 2.4 | – | 3.7 | 6 | – | – | CNC(=O)[C@H]1C[C@H](n2c(-c3ccc(OC)c(OC)c3)nc3ccc(C(=O)NCCCN4CCN(c5cccc(C)c5C)CC4)cc32)C1 [CDD-2421, 2-(3,4-dimethoxyphenyl)-N-(3-(4-(2,3-dimethylphenyl)piperazin-1-yl)propyl)-1-((1r,3r)-3-(methylcarbamoyl)cyclobutyl)-1H-benzo[d]imidazole-6-carboxamide] | – | – | –
10 | – | – | 6.17 | 3.4 | – | 8.6 | 23 | – | – | CNC(=O)[C@H]1C[C@H](n2c(-c3cccc(OC)c3)nc3ccc(C(=O)NCCCN4CCN(c5ccccc5)CC4)cc32)C1 [CDD-2313, 2-(3-methoxyphenyl)-1-((1r,3r)-3-(methylcarbamoyl)cyclobutyl)-N-(3-(4-phenylpiperazin-1-yl)propyl)-1H-benzo[d]imidazole-6-carboxamide] | – | – | –
11 | – | – | 0.358 | 0.849 | – | 10 | 38.3 | – | – | COc1cc(-c2nc3ccc(C(=O)NCCCN4CCN(C5CCCCC5)CC4)cc3n2C2CCC2)cc(OC)c1OC [CDD-2792, 1-cyclobutyl-N-(3-(4-cyclohexylpiperazin-1-yl)propyl)-2-(3,4,5-trimethoxyphenyl)-1H-benzo[d]imidazole-6-carboxamide] | – | – | –
12 | – | – | 0.56 | 2.6 | – | 6.3 | 7.8 | – | – | COc1cc(-c2nc3ccc(C(=O)NCCCN4CCN(c5ccccc5)CC4)cc3n2C2CCC2)cc(OC)c1OC [CDD-2315, 1-cyclobutyl-N-(3-(4-phenylpiperazin-1-yl)propyl)-2-(3,4,5-trimethoxyphenyl)-1H-benzo[d]imidazole-6-carboxamide] | Potent inhibition | suppressed | suppressed
13 | – | – | 5.3 | 9.2 | – | 7.1 | 24.4 | – | – | CNC(=O)[C@H]1C[C@H](n2c(-c3cc(F)cc(OC)c3)nc3ccc(C(=O)NCCCN4CCN(c5ccccc5)CC4)cc32)C1 [CDD-2340, 2-(3-fluoro-5-methoxyphenyl)-1-((1r,3r)-3-(methylcarbamoyl)cyclobutyl)-N-(3-(4-phenylpiperazin-1-yl)propyl)-1H-benzo[d]imidazole-6-carboxamide] | Potent inhibition | suppressed | suppressed

— patent US20260217660A1, “INHIBITORS OF ACTIVIN RECEPTOR TYPE I (ACVRI) AND ACTIVIN RECEPTOR LIKE TYPE I (ACVRLI), AND METHODS USING SAME” (Baylor College of Medicine, priority 2023, published 2026)
